Test results published in PMC6199744, “Development of Chemical Proteomics for the Folateome and Analysis of the Kinetoplastid Folateome” (ACS Infectious Diseases, 2018).
Like-named read-outs stand apart in the source and are kept apart here.

Tests used:
Format in all cases: binding
[1] = target: T. brucei lysate proteins (Trypanosoma brucei brucei, UniProt P23799); conditions: for fold change - vehicle control: protein PUTATIVE ADENYLATE CYCLASE […] (ESAG8) (CZT00028390.1)
[2] = target: T. brucei lysate proteins (Trypanosoma brucei brucei, UniProt P04789)
[3] = test system: NGG1 INTERACTING FACTOR 3-LIKE (Tb427tmp.02.5000); conditions: for fold change: vehicle control = 1
[4] = protein TB427TMP.02.3210 TRIOS[…]
[5] = protein TB427TMP.02.5000 NGG1 I[…] 3-LIKE
[6] = protein CZT00028390.1 PUTATIVE ADENYLATE CYCLASE […] (ESAG8), vehicle control = 1
[7] = protein TB427TMP.02.3210 TRIOS[…], vehicle control = 1
[8] = protein TB427TMP.02.5000 NGG1 INTERACTING FACTOR 3-LIKE

Chain of T. brucei lysate proteins (Trypanosoma brucei brucei, UniProt P04789) (P04789 whole entry): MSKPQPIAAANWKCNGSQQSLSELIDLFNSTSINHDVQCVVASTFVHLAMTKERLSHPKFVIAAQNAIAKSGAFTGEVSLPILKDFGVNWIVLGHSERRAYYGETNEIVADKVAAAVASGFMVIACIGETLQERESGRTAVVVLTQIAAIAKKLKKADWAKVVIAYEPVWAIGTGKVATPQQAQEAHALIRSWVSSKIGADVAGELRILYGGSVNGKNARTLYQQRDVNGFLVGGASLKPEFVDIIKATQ
Chain of T. brucei lysate proteins (Trypanosoma brucei brucei, UniProt P23799) (P23799 whole entry): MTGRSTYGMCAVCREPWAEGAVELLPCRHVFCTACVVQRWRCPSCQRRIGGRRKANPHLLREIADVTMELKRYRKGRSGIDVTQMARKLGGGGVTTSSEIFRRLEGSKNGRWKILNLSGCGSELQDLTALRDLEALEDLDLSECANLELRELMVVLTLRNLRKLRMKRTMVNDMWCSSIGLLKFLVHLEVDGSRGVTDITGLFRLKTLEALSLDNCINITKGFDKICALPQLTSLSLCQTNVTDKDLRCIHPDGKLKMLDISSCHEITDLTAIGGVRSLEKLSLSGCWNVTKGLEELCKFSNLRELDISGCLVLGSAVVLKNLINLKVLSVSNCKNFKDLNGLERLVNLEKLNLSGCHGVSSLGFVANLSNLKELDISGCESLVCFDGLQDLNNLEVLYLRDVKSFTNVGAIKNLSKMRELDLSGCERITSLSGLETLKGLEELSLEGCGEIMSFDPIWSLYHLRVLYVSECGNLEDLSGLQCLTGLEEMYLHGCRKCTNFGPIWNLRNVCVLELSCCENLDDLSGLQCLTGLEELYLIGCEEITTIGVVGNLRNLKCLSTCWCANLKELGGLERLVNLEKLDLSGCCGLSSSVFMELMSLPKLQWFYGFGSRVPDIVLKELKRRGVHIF

Row | Compound | fold change - vehicle control [1] | fold change - vehicle control [2, 4] | fold change [3, 5] | fold change vs vehicle control [1, 6] | fold change vs vehicle control [2, 7] | fold change [3, 8] | further results
1 | Nc1nc2cccc(-c3ccccc3)c2n1Cc1ccc(Cl)c(Cl)c1 [compound 3] | 0.98 | 0.75 | 1.02 |  |  |  | percentage of competition from bead binding ([3]; multitargeted bead mixture, free ligand 100 μM, T. brucei lysate, Tb427tmp.02.5000): -6%
2 | Nc1nc2[nH]cc(CCc3ccc(C(=O)N[C@@H](CCC(=O)O)C(=O)O)cc3)c2c(=O)[nH]1 [PTX, pemetrexed] |  |  | 1.01 |  |  |  | fold change vs vehicle control [1]: 1.01; fold change vs vehicle control [2]: 0.63
3 | Nc1nc2c(c(=O)[nH]1)N(C=O)C(CNc1ccc(C(=O)N[C@@H](CCC(=O)O)C(=O)O)cc1)CN2 (stereo partly shown) [LEU, leucovorin] |  |  |  | 1.17 | 2.16 | 0.98 | 
4 | CCCCCCOc1cccc(Cc2cnc(N)nc2N)c1 [compound 2] | 0.97 | 0.98 |  |  |  | 1.1 | 
5 | NCCOCCOCC(=O)Nc1nc2ncc(CNc3ccc(C(=O)NC(CCC(=O)O)C(=O)O)cc3)nc2c(=O)[nH]1 (stereo not shown) [compound 6] |  |  |  | 1.1 | 1.54 | 0.68 | 
6 | CCCCCCOc1ccc(Cc2cnc(N)nc2N)cc1 [compound 1] | 1.15 | 0.88 | 1.08 |  |  |  | 
7 | NCCCNc1ccc(C(=O)NC(CCC(=O)O)C(=O)O)cc1 (stereo not shown) [compound 7] |  |  | 1.16 | 0.95 | 1.05 |  | 
